{"source": "patent US12077503B2", "about": "“Substituted cyclic amides and their use as herbicides” (FMC CORPORATION, priority 2015, dated 2024)", "format_in_all_cases": "in vivo", "key": {"[1]": {"system": "sedge, umbrella (small-flower umbrella sedge, Cyperus difformis)", "assay": "Test B flooded paddy test", "details": "Flood, 250 g ai/ha; 0 to 100 scale where 0 is no effect and 100 is complete control; 13 to 15 d", "in_short": "(§1)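 Percent control, visually estimated after 13–15 d in the greenhouse on a 0–100 basis, compares treated pots with untreated ones; compound was put into paddy water 3 cm above the soil when plants had two leaves.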"}, "[2]": {"system": "ducksalad (Heteranthera limosa)", "assay": "Test B flooded paddy test", "details": "Flood, 250 g ai/ha; 0 to 100 scale where 0 is no effect and 100 is complete control; 13 to 15 d", "in_short": "as §1"}, "[3]": {"system": "barnyardgrass (Echinochloa crus-galli)", "assay": "Test B flooded paddy test", "details": "Flood, 250 g ai/ha; 0 to 100 scale where 0 is no effect and 100 is complete control; 13 to 15 d", "in_short": "as §1"}, "rice (Oryra sativa)": {"system": "rice (Oryra sativa)", "assay": "Test B flooded paddy test", "details": "Flood, 250 g ai/ha; 0 to 100 scale where 0 is no effect and 100 is complete control; 13 to 15 d", "in_short": "as §1"}, "[4]": {"system": "ryegrass, Italian (Italian ryegrass, Lolium multiflorum)", "assay": "Test A postemergence", "in_short": "(§2)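 Visual injury, scored on a 0–100 scale relative to untreated controls, was recorded about 10 d after application. Treatments were a preemergence soil spray over planted seeds or a postemergence spray on plants at the one- to two-leaf stage, 2 to 10 cm tall, all in loam soil–sand blend in the greenhouse.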"}, "[5]": {"system": "giant foxtail (Setaria faberii)", "assay": "Test A postemergence", "in_short": "as §2"}, "[6]": {"system": "barnyardgrass (Echinochloa crus-galli)", "assay": "Test A postemergence", "in_short": "as §2"}, "[7]": {"system": "ragweed (common ragweed, Ambrosia elatior)", "assay": "Test A postemergence", "in_short": "as §2"}, "[8]": {"system": "Galium (catchweed bedstraw, Galium aparine)", "assay": "Test A postemergence", "in_short": "as §2"}, "[9]": {"system": "pigweed (Amaranthus retroflexus)", "assay": "Test A postemergence", "in_short": "as §2"}, "[10]": {"system": "blackgrass (Alopecurus myosuroides)", "assay": "Test A postemergence", "in_short": "as §2"}, "Kochia (Kochia scoparia) [11]": {"system": "Kochia (Kochia scoparia)", "assay": "Test A postemergence", "in_short": "as §2"}, "corn (Zea mays)": {"system": "corn (Zea mays)", "assay": "Test A postemergence", "in_short": "as §2"}, "[12]": {"system": "wheat (Triticum aestivum)", "assay": "Test A postemergence", "in_short": "as §2"}, "[13]": {"system": "ryegrass, Italian (Italian ryegrass, Lolium multiflorum)", "assay": "Test A preemergence", "details": "Preemergence", "in_short": "as §2"}, "[14]": {"system": "giant foxtail (Setaria faberii)", "assay": "Test A preemergence", "details": "Preemergence", "in_short": "as §2"}, "[15]": {"system": "barnyardgrass (Echinochloa crus-galli)", "assay": "Test A preemergence", "details": "Preemergence", "in_short": "as §2"}, "[16]": {"system": "ragweed (common ragweed, Ambrosia elatior)", "assay": "Test A preemergence", "details": "Preemergence", "in_short": "as §2"}, "[17]": {"system": "pigweed (Amaranthus retroflexus)", "assay": "Test A preemergence", "details": "Preemergence"}, "Kochia (Kochia scoparia) [18]": {"system": "Kochia (Kochia scoparia)", "assay": "Test A preemergence", "details": "Preemergence", "in_short": "as §2"}, "[19]": {"details": "125 g ai/ha, postemergence, visual injury rating on 0 to 100 scale (0 no effect, 100 complete control), approx. 10 d"}, "[20]": {"details": "Postemergence, 500 g ai/ha, 0 to 100 scale where 0 is no effect and 100 is complete control"}, "[21]": {"details": "125 g ai/ha, visual injury after approximately 10 d, 0 to 100 scale where 0 is no effect and 100 is complete control"}, "[22]": {"details": "500 g ai/ha, visual injury approx. 10 d"}}}
{"compound": "O=C1NCC(c2ccc(C(F)(F)F)c(F)c2)C1C(=O)Nc1ccccc1F", "note": "(racemic) [Compound 521]", "values": [{"measurement": "Plant response rating, Sedge, Umbrella", "setting": "[1]", "result": 0}, {"measurement": "Plant response rating, Ducksalad", "setting": "[2]", "result": 85}, {"measurement": "Plant response rating, Barnyardgrass", "setting": "[3]", "result": 40}, {"measurement": "Plant response rating, Rice", "setting": "rice (Oryra sativa)", "result": 0}, {"measurement": "Ryegrass, Italian plant response rating", "setting": "[4]; [19]", "result": 20}, {"measurement": "Plant response rating, Ryegrass, Italian", "setting": "[4]; [20]", "result": 40}, {"measurement": "Foxtail, Giant plant response rating", "setting": "[5]; [19]", "result": 70}, {"measurement": "Plant response rating, Foxtail, Giant", "setting": "[5]; [20]", "result": 90}, {"measurement": "Barnyardgrass plant response rating", "setting": "[6]; [19]", "result": 90}, {"measurement": "Plant response rating, Barnyardgrass", "setting": "[6]; [20]", "result": 90}, {"measurement": "Ragweed plant response rating", "setting": "[7]; [19]", "result": 0}, {"measurement": "Plant response rating, Ragweed", "setting": "[7]; [20]", "result": 0}, {"measurement": "Galium plant response rating", "setting": "[8]; [19]", "result": 50}, {"measurement": "Plant response rating, Galium", "setting": "[8]; [20]", "result": 60}, {"measurement": "Pigweed plant response rating", "setting": "[9]; [19]", "result": 40}, {"measurement": "Plant response rating, Pigweed", "setting": "[9]; [20]", "result": 50}, {"measurement": "Blackgrass plant response rating", "setting": "[10]; [19]", "result": 30}, {"measurement": "Plant response rating, Blackgrass", "setting": "[10]; [20]", "result": 40}, {"measurement": "Kochia plant response rating", "setting": "Kochia (Kochia scoparia) [11]; [19]", "result": 0}, {"measurement": "Plant response rating, Kochia", "setting": "Kochia (Kochia scoparia) [11]; [20]", "result": 20}, {"measurement": "Corn plant response rating", "setting": "corn (Zea mays); [19]", "result": 30}, {"measurement": "Plant response rating, Corn", "setting": "corn (Zea mays); [20]", "result": 40}, {"measurement": "Wheat plant response rating", "setting": "[12]; [19]", "result": 20}, {"measurement": "Plant response rating, Wheat", "setting": "[12]; [20]", "result": 50}, {"measurement": "Plant response rating, Ryegrass, Italian", "setting": "[13]; [21]", "result": 30}, {"measurement": "Ryegrass, Italian plant response rating (0 to 100 scale, 0 is no effect, 100 is complete control)", "setting": "[13]; [22]", "result": 50}, {"measurement": "Plant response rating, Foxtail, Giant", "setting": "[14]; [21]", "result": 90}, {"measurement": "Foxtail, Giant plant response rating (0 to 100 scale, 0 is no effect, 100 is complete control)", "setting": "[14]; [22]", "result": 90}, {"measurement": "Plant response rating, Barnyardgrass", "setting": "[15]; [21]", "result": 90}, {"measurement": "Barnyardgrass plant response rating (0 to 100 scale, 0 is no effect, 100 is complete control)", "setting": "[15]; [22]", "result": 90}, {"measurement": "Plant response rating, Ragweed", "setting": "[16]; [21]", "result": 40}, {"measurement": "Ragweed plant response rating (0 to 100 scale, 0 is no effect, 100 is complete control)", "setting": "[16]; [22]", "result": 60}, {"measurement": "Plant response rating, Pigweed", "setting": "[17]; [21]", "result": 60}, {"measurement": "Pigweed plant response rating (0 to 100 scale, 0 is no effect, 100 is complete control)", "setting": "[17]; [22]", "result": 70}, {"measurement": "Plant response rating, Kochia", "setting": "Kochia (Kochia scoparia) [18]; [21]", "result": 0}, {"measurement": "Kochia plant response rating (0 to 100 scale, 0 is no effect, 100 is complete control)", "setting": "Kochia (Kochia scoparia) [18]; [22]", "result": 70}]}
